± gives the expanded uncertainty stated by the source.
Assay: excess molar enthalpy (molar enthalpy of mixing); xn = mol fraction of the nth substance listed
Conditions: Liquid, Flow calorimetry

CCOC(=O)OCC [diethyl carbonate] + O=C=O
excess molar enthalpy [kcal/mol]
Conditions | 298.15 K | 303.15 K | 308.15 K
5000 kPa, x2 = 0.1103 | – | -0.299 ± 0.00645 | -0.335 ± 0.00717
5000 kPa, x2 = 0.2074 | -0.57 ± 0.0122 | -0.577 ± 0.0122 | -0.627 ± 0.0134
5000 kPa, x2 = 0.2936 | -0.816 ± 0.0174 | -0.815 ± 0.0174 | -0.833 ± 0.0177
5000 kPa, x2 = 0.3706 | -1.03 ± 0.0217 | -1.06 ± 0.0225 | -1.06 ± 0.0225
5000 kPa, x2 = 0.4398 | -1.22 ± 0.0263 | -1.24 ± 0.0263 | -1.24 ± 0.0263
5000 kPa, x2 = 0.5023 | -1.4 ± 0.0287 | -1.4 ± 0.0287 | -1.41 ± 0.0287
5000 kPa, x2 = 0.5591 | -1.53 ± 0.0335 | -1.55 ± 0.0335 | –
5000 kPa, x2 = 0.6109 | -1.65 ± 0.0359 | -1.67 ± 0.0359 | -1.68 ± 0.0359
5000 kPa, x2 = 0.6583 | -1.78 ± 0.0382 | -1.79 ± 0.0382 | -1.8 ± 0.0382
5000 kPa, x2 = 0.7019 | -1.89 ± 0.0406 | -1.89 ± 0.0406 | -1.9 ± 0.0406
5000 kPa, x2 = 0.7184 | – | – | -1.94 ± 0.0406
5000 kPa, x2 = 0.7264 | – | – | -1.95 ± 0.0406
5000 kPa, x2 = 0.7343 | – | – | -1.85 ± 0.0406
5000 kPa, x2 = 0.7421 | -1.97 ± 0.0406 | -1.98 ± 0.043 | -1.81 ± 0.0382
5000 kPa, x2 = 0.7794 | -2.04 ± 0.043 | -2.03 ± 0.043 | -1.54 ± 0.0335
5000 kPa, x2 = 0.7935 | – | -2.05 ± 0.043 | –
5000 kPa, x2 = 0.8004 | – | -1.98 ± 0.043 | –
5000 kPa, x2 = 0.8139 | -2.1 ± 0.0454 | -1.86 ± 0.0406 | –
5000 kPa, x2 = 0.846 | -2.14 ± 0.0454 | -1.51 ± 0.0335 | -1.07 ± 0.0227
5000 kPa, x2 = 0.8522 | -2.07 ± 0.043 | – | –
5000 kPa, x2 = 0.876 | -1.76 ± 0.0382 | -1.21 ± 0.0263 | –
5000 kPa, x2 = 0.904 | -1.36 ± 0.0287 | -0.922 ± 0.0196 | -0.65 ± 0.0139
5000 kPa, x2 = 0.9303 | -0.998 ± 0.0213 | -0.722 ± 0.0153 | –
5000 kPa, x2 = 0.9549 | -0.638 ± 0.0136 | -0.439 ± 0.00932 | -0.297 ± 0.00645
5000 kPa, x2 = 0.9781 | -0.308 ± 0.00669 | -0.208 ± 0.00454 | –
5000 kPa, x2 = 0.9957 | – | – | -0.00454 ± 0.00382
5500 kPa, x2 = 0.111 | -0.3 ± 0.00645 | -0.304 ± 0.00645 | -0.305 ± 0.00645
5500 kPa, x2 = 0.2086 | -0.571 ± 0.0122 | -0.574 ± 0.0122 | -0.579 ± 0.0124
5500 kPa, x2 = 0.2951 | -0.804 ± 0.0172 | -0.802 ± 0.017 | –
5500 kPa, x2 = 0.3723 | -0.995 ± 0.0213 | -1 ± 0.0213 | -1.02 ± 0.0217
5500 kPa, x2 = 0.4416 | -1.16 ± 0.0239 | -1.17 ± 0.0239 | –
5500 kPa, x2 = 0.5041 | -1.32 ± 0.0287 | -1.32 ± 0.0287 | -1.37 ± 0.0287
5500 kPa, x2 = 0.5609 | -1.44 ± 0.0311 | -1.46 ± 0.0311 | –
5500 kPa, x2 = 0.6126 | – | -1.6 ± 0.0335 | -1.64 ± 0.0359
5500 kPa, x2 = 0.66 | -1.68 ± 0.0359 | -1.71 ± 0.0359 | -1.75 ± 0.0359
5500 kPa, x2 = 0.7035 | -1.75 ± 0.0382 | -1.79 ± 0.0382 | -1.84 ± 0.0382
5500 kPa, x2 = 0.7199 | – | – | -1.87 ± 0.0406
5500 kPa, x2 = 0.7436 | -1.84 ± 0.0382 | -1.86 ± 0.0406 | -1.92 ± 0.0406
5500 kPa, x2 = 0.7587 | – | – | -1.95 ± 0.0406
5500 kPa, x2 = 0.7661 | – | – | -1.95 ± 0.0406
5500 kPa, x2 = 0.7734 | – | – | -1.97 ± 0.0406
5500 kPa, x2 = 0.7806 | -1.91 ± 0.0406 | -1.94 ± 0.0406 | -1.95 ± 0.0406
5500 kPa, x2 = 0.7947 | – | – | -1.82 ± 0.0382
5500 kPa, x2 = 0.815 | -1.96 ± 0.0406 | -2.01 ± 0.043 | -1.64 ± 0.0359
5500 kPa, x2 = 0.8281 | – | -2.03 ± 0.043 | –
5500 kPa, x2 = 0.8345 | – | -2.03 ± 0.043 | –
5500 kPa, x2 = 0.8408 | – | -2.03 ± 0.043 | –
5500 kPa, x2 = 0.847 | -2.01 ± 0.043 | -1.93 ± 0.0406 | -1.36 ± 0.0287
5500 kPa, x2 = 0.8768 | -2.04 ± 0.043 | -1.52 ± 0.0335 | –
5500 kPa, x2 = 0.9047 | -2.07 ± 0.043 | -1.21 ± 0.0263 | -0.841 ± 0.0179
5500 kPa, x2 = 0.91 | -2.07 ± 0.043 | – | –
5500 kPa, x2 = 0.9153 | -2.04 ± 0.043 | – | –
5500 kPa, x2 = 0.9205 | -1.95 ± 0.0406 | – | –
5500 kPa, x2 = 0.9308 | -1.69 ± 0.0359 | -0.875 ± 0.0186 | –
5500 kPa, x2 = 0.9553 | -1.08 ± 0.0229 | -0.564 ± 0.012 | -0.396 ± 0.00837
5500 kPa, x2 = 0.9783 | -0.498 ± 0.0105 | -0.265 ± 0.00574 | –
6000 kPa, x2 = 0.2097 | – | – | -0.562 ± 0.012
6000 kPa, x2 = 0.2965 | – | – | -0.778 ± 0.0165
6000 kPa, x2 = 0.3739 | – | – | -0.994 ± 0.021
6000 kPa, x2 = 0.4433 | – | – | -1.17 ± 0.0239
6000 kPa, x2 = 0.5058 | – | – | -1.32 ± 0.0287
6000 kPa, x2 = 0.5626 | – | – | -1.45 ± 0.0311
6000 kPa, x2 = 0.6142 | – | – | -1.57 ± 0.0335
6000 kPa, x2 = 0.6615 | – | – | -1.66 ± 0.0359
6000 kPa, x2 = 0.7049 | – | – | -1.76 ± 0.0382
6000 kPa, x2 = 0.7448 | – | – | -1.83 ± 0.0382
6000 kPa, x2 = 0.7818 | – | – | -1.9 ± 0.0406
6000 kPa, x2 = 0.7958 | – | – | -1.92 ± 0.0406
6000 kPa, x2 = 0.816 | – | – | -1.94 ± 0.0406
6000 kPa, x2 = 0.829 | – | – | -1.95 ± 0.0406
6000 kPa, x2 = 0.8354 | – | – | -1.91 ± 0.0406
6000 kPa, x2 = 0.8479 | – | – | -1.76 ± 0.0382
6000 kPa, x2 = 0.9052 | – | – | -1.09 ± 0.0232
6000 kPa, x2 = 0.9555 | – | – | -0.501 ± 0.0108
6500 kPa, x2 = 0.1123 | – | – | -0.281 ± 0.00598
6500 kPa, x2 = 0.2108 | – | – | -0.536 ± 0.0115
6500 kPa, x2 = 0.2978 | – | – | -0.751 ± 0.016
6500 kPa, x2 = 0.3753 | – | – | -0.972 ± 0.0208
6500 kPa, x2 = 0.4448 | – | – | -1.1 ± 0.0234
6500 kPa, x2 = 0.5074 | – | – | -1.25 ± 0.0263
6500 kPa, x2 = 0.5641 | – | – | -1.37 ± 0.0287
6500 kPa, x2 = 0.6157 | – | – | -1.47 ± 0.0311
6500 kPa, x2 = 0.6629 | – | – | -1.58 ± 0.0335
6500 kPa, x2 = 0.7062 | – | – | -1.67 ± 0.0359
6500 kPa, x2 = 0.746 | – | – | -1.73 ± 0.0359
6500 kPa, x2 = 0.7828 | – | – | -1.76 ± 0.0382
6500 kPa, x2 = 0.817 | – | – | -1.8 ± 0.0382
6500 kPa, x2 = 0.8487 | – | – | -1.83 ± 0.0382
6500 kPa, x2 = 0.8782 | – | – | -1.82 ± 0.0382
6500 kPa, x2 = 0.895 | – | – | -1.7 ± 0.0359
6500 kPa, x2 = 0.9058 | – | – | -1.56 ± 0.0335
6500 kPa, x2 = 0.9215 | – | – | -1.27 ± 0.0263
6500 kPa, x2 = 0.9316 | – | – | -1.13 ± 0.0239
6500 kPa, x2 = 0.9415 | – | – | -0.986 ± 0.021
6500 kPa, x2 = 0.9558 | – | – | -0.69 ± 0.0148
6500 kPa, x2 = 0.9786 | – | – | -0.329 ± 0.00717
6500 kPa, x2 = 0.9916 | – | – | -0.111 ± 0.00406
